Legend:
BTK recombinant protein = BTK recombinant protein (Homo sapiens (Human), UniProt Q06187); experiment: Determination of biochemical BTK (Z'-LYTE kinase assay)
Method in brief: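 Human BTK recombinant kinase (3.32 nM final) was preincubated with compound for 30 min at 4 °C. Reaction ran 1 h at room temperature with Tyr01 FRET peptide (2 μM) and ATP (32 μM); development protease then added. Coumarin 445 nm/fluorescein 520 nm emission ratio (400 nm excitation) gave inhibition across 8 concentrations, 3000–1.37 nM.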

[1] = biological target: phosphorylated BTK in Ramos cells (Homo sapiens (Human), UniProt Q06187); experiment: Determination of phosphorylated BTK in Ramos cells (BTK phospho-Y223 HTRF); format: cell-based; conditions: anti-human IgM + hydrogen peroxide stimulation
Method in brief: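 BTK Y223 phosphorylation measured by HTRF (665/615 nm) in lysates of Ramos cells. Cells were serum-starved 2 h, exposed to compound for 1 h (final 0.00018–3.0 μM, 0.3% DMSO), then stimulated 10 min with 10 μg/mL anti-IgM and 3.3 mM H2O2. IC50 derived from percent inhibition between unstimulated and stimulated controls.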

phosphorylated BTK in Ramos cells, sequence (Q06187 whole entry): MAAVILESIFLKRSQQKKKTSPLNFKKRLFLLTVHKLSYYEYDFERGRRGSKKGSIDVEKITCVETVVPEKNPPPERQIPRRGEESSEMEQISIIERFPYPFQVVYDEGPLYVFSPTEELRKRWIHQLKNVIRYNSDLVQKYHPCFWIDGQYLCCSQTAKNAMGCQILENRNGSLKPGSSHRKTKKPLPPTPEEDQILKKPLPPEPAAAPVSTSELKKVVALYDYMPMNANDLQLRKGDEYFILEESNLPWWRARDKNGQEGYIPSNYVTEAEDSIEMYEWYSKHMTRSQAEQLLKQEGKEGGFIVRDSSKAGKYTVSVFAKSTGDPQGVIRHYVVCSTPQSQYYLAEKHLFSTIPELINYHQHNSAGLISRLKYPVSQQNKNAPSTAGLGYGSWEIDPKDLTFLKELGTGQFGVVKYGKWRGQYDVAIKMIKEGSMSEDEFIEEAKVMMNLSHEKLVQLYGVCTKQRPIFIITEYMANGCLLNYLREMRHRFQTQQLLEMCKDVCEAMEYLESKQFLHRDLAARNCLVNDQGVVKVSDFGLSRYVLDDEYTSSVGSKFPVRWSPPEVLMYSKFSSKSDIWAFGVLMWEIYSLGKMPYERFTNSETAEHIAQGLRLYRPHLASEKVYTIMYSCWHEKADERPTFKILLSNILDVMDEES
BTK recombinant protein, sequence (Q06187 whole entry): as above

| SMILES | IC50 (BTK recombinant protein) [nM] | IC50 [1] [nM] |
| --- | --- | --- |
| C[C@H]1CN(C2COC2)CCN1c1ccc(Nc2cc(-c3ccnc(-n4ccn5c(cc6ccccc65)c4=O)c3CO)nn(C)c2=O)nc1 [Compound 76] | 123 | 60 |
| Cn1cc(-c2ccnc(-n3ccn4c5c(cc4c3=O)CC(C)(C)C5)c2CO)cc(Nc2ccccc2)c1=O [Compound 77] | 441 | 132 |
| Cn1ccc(Nc2cc(-c3ccnc(-n4ccn5c6c(cc5c4=O)CC(C)(C)C6)c3CO)cn(C)c2=O)n1 [Compound 81] | 8 | 2 |
| Cc1cc(Nc2cc(-c3ccnc(-n4ccn5c6c(cc5c4=O)CC(C)(C)C6)c3CO)cn(C)c2=O)nn1C [Compound 82] | 6 | 2 |
| Cn1cc(-c2ccnc(-n3ccn4c5c(cc4c3=O)CC(C)(C)C5)c2CO)cc(Nc2cccnn2)c1=O [Compound 84] | 9 | 11 |
| Cn1cc(Nc2cc(-c3ccnc(-n4ccn5c6c(cc5c4=O)CC(C)(C)C6)c3CO)cn(C)c2=O)cn1 [Compound 86] | 16 | 6 |
| Cc1cc(Nc2cc(-c3ccnc(-n4ccn5c6c(cc5c4=O)CC(C)(C)C6)c3CO)cn(C)c2=O)no1 [Compound 87] | 11 | 3 |
| Cn1cc(-c2ccnc(-n3ccn4c5c(cc4c3=O)CC(C)(C)C5)c2CO)cc(NC(=O)C2CC2)c1=O [Compound 89] | 11 | 8 |
| Cn1nc(Nc2cc(-c3ccnc(-n4ccn5c6c(cc5c4=O)CC(C)(C)C6)c3CO)cn(C)c2=O)cc1C(=O)N1CCOCC1 [Compound 99] | 6 | 4 |
| CN(c1ccc(Nc2cc(-c3ccnc(-n4ncn5c6c(cc5c4=O)CC(C)(C)C6)c3CO)cn(C)c2=O)nc1)C1COC1 [Compound 106] | 12 | 1 |
| COCCN1CCn2nc(Nc3cc(-c4ccnc(-n5ncn6c7c(cc6c5=O)CC(C)(C)C7)c4CO)cn(C)c3=O)cc2C1 [Compound 107] | 12 | 2 |
| COCCN1CCn2nc(Nc3cc(-c4ccnc(-n5ccn6c7c(cc6c5=O)CC(C)(C)C7)c4CO)cn(C)c3=O)cc2C1C (centres unmarked) [Compound 111] | 8 | 2 |
| COCC(C)N1CCn2nc(Nc3cc(-c4ccnc(-n5ccn6c7c(cc6c5=O)CC(C)(C)C7)c4CO)cn(C)c3=O)cc2C1 (centres unmarked) [Compound 115] | 12 | 10 |
| COCCN1CCn2nc(Nc3cc(-c4ccnc(-n5ccn6c7c(cc6c5=O)CC(C)(C)C7)c4CO)cn(C)c3=O)cc2[C@@H]1C [Compound 116] | 10 | 11 |
| COCCN1CCn2nc(Nc3cc(-c4ccnc(-n5ccn6c7c(cc6c5=O)CC(C)(C)C7)c4CO)cn(C)c3=O)cc2[C@H]1C [Compound 117] | 4 | 7 |
| CC1c2cc(Nc3cc(-c4ccnc(-n5ncn6c7c(cc6c5=O)CC(C)(C)C7)c4CO)cn(C)c3=O)nn2CCN1C1COC1 (centres unmarked) [Compound 118] | 5 | 1 |
| COCCN1CCn2nc(Nc3cc(-c4ccnc(-n5ncn6c7c(cc6c5=O)CC(C)(C)C7)c4CO)cn(C)c3=O)cc2[C@@H]1C [Compound 119, 2-(3′-(hydroxymethyl)-5-((5-(2-methoxyethyl)-4-methyl-4,5,6,7-tetrahydropyrazolo[1,5-a]pyrazin-2-yl) amido)-1-methyl-6-oxo-1,6-dihydro-[3,4′-bispyridin]-2′-yl)-7,7-dimethyl-7,8-dihydro-2H-cyclopenta[4,5]pyrrolo[1,2-d][1,2,4]triazin-1(6H)-one optically Pure] | 7 | 2 |
| Cn1cc(-c2ccnc(-n3ncn4c5c(cc4c3=O)CC(C)(C)C5)c2CO)cc(Nc2cc3n(n2)CCN(C2COC2)C3)c1=O [Compound 122] | < 1 | 7 |
| Cc1ccc(Nc2cc(-c3ccnc(-n4ncn5c6c(cc5c4=O)CC(C)(C)C6)c3CO)cn(C)c2=O)nn1 [Compound 132] | 51 | 28 |
| COc1ccc(Nc2cc(-c3ccnc(-n4ncn5c6c(cc5c4=O)CC(C)(C)C6)c3CO)cn(C)c2=O)nc1 [Compound 133] | 33 | 13 |
| Cn1cc(-c2ccnc(-n3ccn4c5c(cc4c3=O)CCC5)c2CO)cc(Nc2cc3n(n2)CCN(C2COC2)C3)c1=O [Compound 134] | 59 | 54 |
| Cn1cc(-c2ccnc(-n3ccn4c5c(cc4c3=O)CC(C)(C)C5)c2CO)cc(Nc2cc3n(n2)CCN(C#N)C3)c1=O [Compound 135, 2-((2′-(7,7-dimethyl-1-oxo-1,6,7,8-tetrahydro-2H-cyclopenta[4,5]pyrrolo[1,2-a]pyrazin-2-yl)-3′-(hydroxymethyl)-1-methyl-6-oxo-1,6-dihydro-[3,4′-bispyridin]-5-yl)amino)-6,7-dihydropyrazolo[1,5-a]pyrazin-5(4H)-nitrile] | 8 | 5 |

Results, then the compound that gave them:

| IC50 (BTK recombinant protein) [nM] | IC50 [1] [nM] | SMILES |
| --- | --- | --- |
| 5 | 2 | C[C@@H]1CN(C2COC2)CCN1c1ccc(Nc2cc(-c3ccnc(-n4ccn5c6c(cc5c4=O)CC(C)(C)C6)c3CO)cn(C)c2=O)nc1 [Compound 80] |
| 13 | 13 | Cn1cc(-c2ccnc(-n3ccn4c5c(cc4c3=O)CC(C)(C)C5)c2CO)cc(Nc2ccncn2)c1=O [Compound 83] |
| 11 | 2 | Cc1ccc(Nc2cc(-c3ccnc(-n4ccn5c6c(cc5c4=O)CC(C)(C)C6)c3CO)cn(C)c2=O)nn1 [Compound 85] |
| 26 | 7 | Cn1cc(-c2ccnc(-n3ccn4c5c(cc4c3=O)CC(C)(C)C5)c2CO)cc(Nc2ccc(F)cn2)c1=O [Compound 90] |
| 17 | 4 | CC[C@H]1CN(C2COC2)CCN1c1ccc(Nc2cc(-c3ccnc(-n4ccn5c6c(cc5c4=O)CC(C)(C)C6)c3CO)cn(C)c2=O)nc1 [Compound 91] |
| 10 | 7 | C[C@H]1CN(C2COC2)CCN1c1ccc(Nc2cc(-c3ccnc(-n4ccn5c6c(cc5c4=O)CCCCC6)c3CO)cn(C)c2=O)nc1 [Compound 92] |
| 49 | 46 | C[C@H]1CN(C2COC2)CCN1c1ccc(Nc2cc(-c3ccnc(-n4ccn5c6c(cc5c4=O)COCC6)c3CO)cn(C)c2=O)nc1 [Compound 93] |
| 7 | 2 | [2H]C1(N2CCN(c3ccc(Nc4cc(-c5ccnc(-n6ccn7c8c(cc7c6=O)CC(C)(C)C8)c5CO)cn(C)c4=O)nc3)[C@@H](C)C2)COC1 [Compound 94] |
| 10 | 3 | Cn1cc(-c2ccnc(-n3ccn4c5c(cc4c3=O)CC(C)(C)C5)c2CO)cc(Nc2ccc(N3CCN(C4COC4)CC3(C)C)cn2)c1=O [Compound 95] |
| 7 | 5 | C[C@H]1CNCCN1c1ccc(Nc2cc(-c3ccnc(-n4ccn5c6c(cc5c4=O)CC(C)(C)C6)c3CO)cn(C)c2=O)nc1 [Compound 96] |
| 9 | 3 | [2H]C([2H])([2H])n1cc(-c2ccnc(-n3ccn4c5c(cc4c3=O)CC(C)(C)C5)c2CO)cc(Nc2ccc(N3CCN(C4COC4)C[C@@H]3C)cn2)c1=O [Compound 97] |
| 5 | 2 | [2H]C(O)c1c(-c2cc(Nc3ccc(N4CCN(C5COC5)C[C@@H]4C)cn3)c(=O)n(C)c2)ccnc1-n1ccn2c3c(cc2c1=O)CC(C)(C)C3 (some centres unmarked) [Compound 100] |
| 11 | 2 | C[C@H]1CN(CC#N)CCN1c1ccc(Nc2cc(-c3ccnc(-n4ccn5c6c(cc5c4=O)CC(C)(C)C6)c3CO)cn(C)c2=O)nc1 [Compound 102] |
| 10 | 6 | Cc1nn(-c2nccc(-c3cc(Nc4ccc(N5CCN(C6COC6)C[C@@H]5C)cn4)c(=O)n(C)c3)c2CO)c(=O)c2cc3c(n12)CC(C)(C)C3 [Compound 104] |
| 67 | 11 | C[C@H]1CN(C2COC2)CCN1c1ccc(Nc2cc(-c3ccnc(-n4ccn5c6c(cc5c4=O)CC(C)(C)C6)c3CF)cn(C)c2=O)nc1 [Compound 105] |
| 7 | 1 | C[C@H]1CN(C#N)CCN1c1ccc(Nc2cc(-c3ccnc(-n4ccn5c6c(cc5c4=O)CC(C)(C)C6)c3CO)cn(C)c2=O)nc1 [Compound 108] |
| 20 | 4 | Cn1cc(-c2ccnc(-n3ccn4c5c(cc4c3=O)CC(C)(C)C5)c2CO)cc(Nc2ccc(N3CCC4C3CCN4C3COC3)cn2)c1=O (centres unmarked) [Compound 109] |
| 5 | 3 | CC1c2cc(Nc3cc(-c4ccnc(-n5ccn6c7c(cc6c5=O)CC(C)(C)C7)c4CO)cn(C)c3=O)nn2CCN1C1COC1 (centres unmarked) [Compound 112] |
| 13 | 9 | C[C@H]1CN(C2COC2)C(=O)N1c1ccc(Nc2cc(-c3ccnc(-n4ccn5c6c(cc5c4=O)CC(C)(C)C6)c3CO)cn(C)c2=O)nc1 [Compound 123] |
| 6 | 7 | Cn1cc(-c2ccnc(-n3ccn4c5c(cc4c3=O)CC(C)(C)C5)c2CO)cc(Nc2cc3n(n2)CCN(C2COC2)C3)c1=O [Compound 124] |
| 33 | 21 | Cc1ccc(Nc2cc(-c3ccnc(-n4ccn5c6c(cc5c4=O)CC(C)(C)C6)c3CO)cn(C)c2=O)nc1 [Compound 125] |
| 26 | 20 | COc1ccc(Nc2cc(-c3ccnc(-n4ccn5c6c(cc5c4=O)CC(C)(C)C6)c3CO)cn(C)c2=O)nc1 [Compound 126] |
| 10 | 18 | C[C@@H](CNC1COC1)Nc1ccc(Nc2cc(-c3ccnc(-n4ccn5c6c(cc5c4=O)CC(C)(C)C6)c3CO)cn(C)c2=O)nc1 [Compound 127] |
| 4 | 5 | C[C@H]1c2cc(Nc3cc(-c4ccnc(-n5ccn6c7c(cc6c5=O)CC(C)(C)C7)c4CO)cn(C)c3=O)nn2CCN1C1COC1 [Compound 136] |

— US11478474B2, “2-(3′-(hydroxymethyl)-1-methyl-5-((5-(2-methyl-4-(oxetan-3-yl)piperazin-1-yl)pyridin-2-yl)amino)-6-oxo-1,6-dihydro-[3,4′-bipyridin]-2′-yl)-7,7-dimethyl-7,8-dihydro-2H-cyclopenta[4,5]pyrrolo[1,2-a]pyrazin-1(6H)-one as a BTK inhibitor” (HUTCHISON MEDIPHARMA LIMITED, priority 2020, dated 2022)
